Consider 14 molecules from publication PMC5571359, “Screening the Medicines for Malaria Venture Pathogen Box across Multiple Pathogens Reclassifies Starting Points for Open-Source Drug Discovery” (Antimicrobial Agents and Chemotherapy, 2017).

The subject of one series is HEK293 cells. The series can be described thus: HEK293 resazurin cell cytotoxicity assay. The following applies: reference compound set, top screening dose. A general note: Resazurin is reduced to fluorescent resorufin, in cell work by metabolically active cells.
Series [1] has as its system NF54-pfs16-LUC-GFP stage IV gametocytes. The series can be described thus: Plasmodium falciparum late stage gametocyte (LSG) image-based assay. Format: cell-based. The settings on record: for pIC50 / inhibition at 20 µM: Plasmodium falciparum; for pIC50: NF54, read-out: IC50 P. falciparum NF54 LSG, reference compound set, 11-point dose response, IA = inactive at 20 μM; for inhibition at 20 µM: NF54, read-out: percent inhibition at the top screening dose, P. falciparum NF54 LSG.

The test system of series [2] is T. cruzi intracellular amastigotes. In words: Intracellular anti-Trypanosoma cruzi image-based assay (amastigotes). It is filed as cell-based. The settings on record: Trypanosoma cruzi.
The test system of series [3] is Plasmodium falciparum 3D7 asexual blood stage. In words: microbe, parasite or virus in culture. The following applies: for inhibition at 20 µM: 3D7, read-out: percent inhibition at the top screening dose, P. falciparum 3D7 ABS.
Series [4] relates to L. donovani MHOM/IN/80/DD8 intracellular amastigotes. In words: Leishmania donovani intracellular amastigote assay in THP-1 cells. The following applies: for pIC50 / inhibition at 20 µM: Leishmania donovani; for inhibition at 20 µM: THP-1; for activity against L. donovani at 20 μM: PBox sample. Format: cell-based.
For series [5], the system named is T. b. brucei 427 bloodstream trypanosomes. The series can be described thus: T. b. brucei resazurin viability assay. Format: cell-based, Trypanosoma brucei brucei. The following applies: Trypanosoma brucei; for inhibition at 20 µM: read-out: percent inhibition at the top screening dose, T. brucei brucei.
The test system of the next series is 3T3 host cells. The series can be described thus: T. cruzi assay, activity against 3T3 host cells. It is filed as cell-based. The settings on record: reference compound set; for pIC50: IA = inactive at 16.4 μM. The procedure:
page 4: […] Puromycin, 71 chloroquine, artesunate, DHA, pyronaridine and pyrimethamine were also tested in 72 IC50 format to act as internal reference compounds. 73 74 Intracellular anti-Trypanosoma cruzi Assay Protocol 75 The host cell cytoplasm, in which the parasite resides, is identified by the fluorescent 76 marker, HCS CellMask Green. Parasite and host cell nuclei are detected with the 77 fluorescent DNA intercalator, Hoechst 33342. The Opera® High Content Screening 78 System is used to take images of wells and a spot detection algorithm is used to 79 identify parasites within the cytoplasm. 80 81 Briefly, 1x 10^3 3T3 cells were added to collagen coated 384-well plates and following 82 24 hrs incubation at 37 °C, a multiplicity of infection (MOI) of 5:1 parasite: host cells 83 were added to the plate using a Multidrop liquid handler. Following additional 24 hrs 84 incubation, extracellular parasites were washed from the plates and RPMI with no […] 86 added to all wells. The final volume of media in the primary screening assay, before 87 addition of compound, was modified slightly to 55 µL. One µL of compounds, provided 88 by Compounds Australia, were diluted by the addition of 25 µL of sterile water. This […] 91 donovani). Five microliters of this dilution was added to assay plates. The final […] The final concentrations of compounds in the […] Following 48 hrs incubation in the presence 97 of compounds, wells were fixed, stained and read on the Opera® High Content 98 Screening System to assess compound activity. 99 The Z′-factor, as a measure of assay reproducibility, was determined from a plate […] The positive control used to calculate activity against […] To 103 assess the sensitivity of the T. cruzi assay, activity of the reference compounds 104 benznidazole, NFX, posaconazole and puromycin were determined. […] 108 resazurin as a measure of parasite viability. 109 T. b. brucei trypanosomes were cultured in vitro in HM1-9 medium supplemented with […] Fifty-five µL of logarithmic phase […] 112 incubated for 24 hrs at 37°C /5% CO2. Compounds were subsequently added to the […] Following […] 116 37°C / 5% CO2 followed by 22 hrs at room temperature. […] The percent

A further series deals with HepG2. The settings on record: read-out: HepG2 PBox CC50 µM; HepG2 cytotoxicity; ref PBox supporting information; cited from earlier work.
The test system of series [6] is Plasmodium falciparum 3D7 asexual blood stage.
A further series relates to P. falciparum ABS. The following applies: ChEMBL Data, cited from earlier work.
The mark [7] stands for this setting: reference compound set, IA = inactive at 16.4 μM, read-out: IC50 T. cruzi intracellular amastigotes.
Where [8] appears, read: THP-1, read-out: IC50 L. donovani n = 1, reference compound set, first test, IA = inactive at 20 μM.
Setting [9] is: THP-1, read-out: IC50 L. donovani n = 2, reference compound set, second test, IA = inactive at 20 μM.
Setting [10] is: reference compound set, first test, read-out: percent inhibition at the top screening dose, L. donovani n = 1.
Where [11] appears, read: reference compound set, second test, read-out: percent inhibition at the top screening dose, L. donovani n = 2.
[12] abbreviates: 3D7, read-out: IC50 P. falciparum 3D7 ABS.
Setting [13] is: reference compound set, IA = inactive at 20 μM, read-out: IC50 T. brucei brucei trypomastigotes.

pEC50, pIC50: −log10 of the molar value. Like-named read-outs stand apart in the source and are kept apart here.

A word on the inhibition: it is the share of the control response that was lost under treatment. As to `CCN(CC)CCCCCCNc1cc(OC)cc2c(C)ccnc12` [Sitamaquine, reference compound], the “percent inhibition at the top screening dose, HEK293” value with HEK293 cells came out at 100%. Moreover, the pIC50 is 6.01 in [1]; under 4.79 in [2] (setting [7]); 5.69 in series [3] (3D7, read-out: IC50 P. falciparum 3D7 ABS, reference compound set, 11-point dose response, IA = inactive at 20 μM); under 4.70 in [4] (setting [8]); under 4.70 in series [4] (setting [9]); under 4.79 in the series on 3T3 host cells. For the same molecule, the inhibition at 20 µM in series [5] (reference compound set) amounted to 91%.

As to `COc1cc(NC(C)CCCN)c2ncccc2c1` (stereo not shown) [Primaquine, reference compound], the inhibition at 20 µM in series [1] was 96%; in series [3] it was 91%; in series [4] (setting [10]), 33%; in series [4] (setting [11]) it was 79%; in series [5] (reference compound set), 91%. Also, the inhibition at 16.4 µM in series [2] (reference compound set, 16.4 μM, read-out: percent inhibition at the top screening dose, T. cruzi intracellular amastigotes) is 94%; in the series with 3T3 host cells (16.4 μM, read-out: percent inhibition at the top screening dose, 3T3 host cells), 73%.

`Cc1ccc(C(=O)Nc2ccc(S(=O)(=O)O)c3cc(S(=O)(=O)O)cc(S(=O)(=O)O)c23)cc1NC(=O)c1cccc(NC(=O)Nc2cccc(C(=O)Nc3cc(C(=O)Nc4ccc(S(=O)(=O)O)c5cc(S(=O)(=O)O)cc(S(=O)(=O)O)c45)ccc3C)c2)c1` [Suramin, reference compound]: the pIC50 in [1] is under 4.70; in series [2] (setting [7]) it was under 4.79; in series [3] (setting [12]), under 4.70; in [4] (setting [8]), under 4.70; in series [4] (setting [9]), under 4.70; in series [5] (read-out: IC50 T. brucei brucei trypomastigotes) it was 6.96. This molecule showed a pIC50 in the series on 3T3 host cells of under 4.79.

Usually Emax stands for the greatest response seen or fitted, relative to the assay's reference. Turning to `CC1CS(=O)(=O)CCN1/N=C/c1ccc([N+](=O)[O-])o1` (stereo not shown) [Nifurtimox, reference compound], the inhibition at 20 µM in [1] came out at 39%. Besides, the pIC50 in [2] (in-house control stock, not the PBox sample, read-out: IC50 of standard in-house assay control, T. cruzi amastigotes) is 5.91; in series [2] (setting [7]), 5.85; in [3] (setting [12]), under 4.70; in series [4] (setting [8]), under 4.70; in [4] (setting [9]) it was under 4.70; in series [5] (setting [13]), 5.27. The pIC50 in the series with 3T3 host cells is under 4.79. In addition, the Emax in series [2] (reference compound set, read-out: T. cruzi Emax (maximal % inhibition plateau in dose response curve)) was found to be 100%.

As for `CC(=O)Oc1ccccc1C(=O)Nc1ncc([N+](=O)[O-])s1` [Nitazoxanide, reference compound], the pIC50 in [1] is under 4.70; in series [2] (setting [7]), under 4.79; in [3] (setting [12]), under 4.70; in the series with 3T3 host cells, under 4.79. For the same molecule, the values for the inhibition at 20 µM in series [4] (setting [10]), in series [4] (setting [11]) and in [5] (reference compound set) were 44%, 41% and 41%, respectively.

In the case of `C[C@@H]1[C@H](O)[C@@H](C)/C=C/C=C/C=C/C=C/C=C/C=C/C=C/[C@H](O[C@@H]2O[C@H](C)[C@@H](O)[C@H](N)[C@@H]2O)C[C@@H]2O[C@](O)(C[C@@H](O)C[C@@H](O)[C@H](O)CC[C@@H](O)C[C@@H](O)CC(=O)O[C@H]1C)C[C@H](O)[C@H]2C(=O)O` [Amphotericin B], the pIC50 in [1] was under 4.70; in [2] (setting [7]) it was under 4.79; in series [4] (THP-1, in-house control stock, not the PBox sample, two tests, read-out: IC50 of standard in-house assay control, L. donovani), 6.39; in [4] (setting [9]), under 4.70; in series [5] (setting [13]), under 4.70; with 3T3 host cells it was under 4.79. The figures for the inhibition at 20 µM in series [3] and in [4] (setting [10]) were 87% and 100%, respectively. The “activity against L. donovani at 20 μM” value in series [4] is “not active”.

`COC(=O)Nc1nc2ccc(C(=O)c3ccccc3)cc2[nH]1` [Mebendazole, reference compound]: the pIC50 in [1] was under 4.70; in series [2] (setting [7]), under 4.79; in series [3] (setting [12]), under 4.70; in series [4] (setting [8]) it was under 4.70; in series [4] (setting [9]), under 4.70; in series [5] (setting [13]), under 4.70. This molecule gave a pIC50 in the series with 3T3 host cells of under 4.79.

Broadly, the CC50 is the concentration at which the toxic effect on the cells reaches its halfway point. For the molecule `c1ccc(C[C@@H]2CN(c3nccc(Oc4ccc(-n5ccnc5)cc4)n3)CCN2)cc1` [MMV687749], the cytotoxic concentration (CC50) in the series with HepG2 is 29 µM. Moreover, the pIC50 in series [3] (3D7, read-out: Antiplasmodial IC50 (ABS), PBox compounds, P. falciparum 3D7) is 5.70; in series [3] (3D7, read-out: activity against P. falciparum (novel antiplasmodial actives of the tuberculosis set)) it was over 5.70; in series [6] (read-out: Antiplasmodial IC50 (ABS), PBox compounds, P. falciparum 3D7) it was 5.68.

Regarding `[H]/N=C(/N)N[C@H]1[C@H](O)[C@@H](O)[C@H](O[C@@H]2O[C@@H](C)[C@](O)(C=O)[C@H]2O[C@@H]2O[C@@H](CO)[C@H](O)[C@@H](O)[C@@H]2NC)[C@@H](N/C(N)=N\[H])[C@@H]1O` [Streptomycin, reference compound], in series [1], the inhibition at 20 µM came to 41%. Also, the pIC50 in series [2] (setting [7]) is under 4.79; in [3] (setting [12]), under 4.70; in series [4] (setting [8]), under 4.70; in [4] (setting [9]), under 4.70; in series [5] (setting [13]), under 4.70; in the series on 3T3 host cells, under 4.79.

For `O=C(C1CCCCC1)N1CC(=O)N2CCc3ccccc3C2C1` (stereo not shown) [Praziquantel, reference compound], the pIC50 was under 4.70 in series [1]; under 4.79 in series [2] (setting [7]); under 4.70 in series [3] (setting [12]); under 4.70 in series [4] (setting [8]); under 4.70 in [4] (setting [9]); under 4.70 in series [5] (setting [13]). The pIC50 in the series on 3T3 host cells is under 4.79.

Take `O=C(C1CCN(c2nnnn2-c2ccccc2)CC1)N1CCc2ccccc2C1` [MMV009135]: the “activity in the Discovery Biology stage IV gametocyte (LSG) assay” value in series [1] is given as “did not show any activity”. In addition, the pEC50 was 5.89 in the series on P. falciparum ABS (NITD, read-out: NITD (ref 94) EC50) and 6.15 with P. falciparum ABS (TCMDC, read-out: TCMDC (ref 93) EX50). Further, the “activity in the Discovery Biology ABS assay” value in series [6] is recorded as “did not show any activity”.

For `C[C@H]1c2cccc(O)c2C(=O)C2=C(O)[C@]3(O)C(=O)C(C(N)=O)=C(O)[C@@H](N(C)C)[C@@H]3[C@@H](O)[C@@H]21` [Doxycycline, reference compound], the inhibition at 20 µM in series [1] amounted to 77%; in series [3], 90%. For the same molecule, the pIC50 was under 4.79 in series [2] (setting [7]); under 4.70 in series [4] (setting [8]); under 4.70 in [4] (setting [9]); under 4.70 in series [5] (setting [13]); under 4.79 in the series with 3T3 host cells.

As to `N=C(N)c1ccc(OCCCCCOc2ccc(C(=N)N)cc2)cc1` [Pentamidine, reference compound], the “percent inhibition at the top screening dose, HEK293” value with HEK293 cells came to 75%. Besides, the pIC50 was 5.84 in series [1]; under 4.79 in series [2] (setting [7]); 8.00 in [3] (setting [12]); under 4.70 in series [4] (setting [8]); under 4.70 in series [4] (setting [9]); over 9.00 in series [5] (in-house control stock, not the PBox sample, read-out: IC50 of standard in-house assay control, T. brucei brucei). Moreover, the pIC50 in series [5] (setting [13]) was over 7.70; with 3T3 host cells, under 4.79. The “activity against L. donovani at 20 μM” value in series [4] was “did not show activity”.

With `CC(=O)NC[C@H]1CN(c2ccc(N3CCOCC3)c(F)c2)C(=O)O1` [Linezolid, reference compound], the pIC50 is under 4.70 in series [1]; under 4.79 in [2] (setting [7]); under 4.70 in series [3] (setting [12]); under 4.70 in [4] (setting [8]); under 4.70 in series [4] (setting [9]); under 4.70 in [5] (setting [13]). Moreover, the pIC50 in the series with 3T3 host cells was under 4.79.
